# Key:
# [1] = system: HeLa cervical carcinoma cells; assay: Effect on extracellular pH of HeLa cells in hypoxia; type: cell-based; conditions: hypoxia 48 h, 1 mM
# Experimental: Cell cultures. MDCK and HeLa cells as well as their transfected derivatives were grown in DMEM with 10% FCS (BioWhittaker, Verviers, Belgium) buffered with 22.4 mM bicarbonate and containing supplements as described before (Svastova, E.; et al.; Exp. Cell. Res. 2003, 290, 332-345) To maintain standard experimental conditions, the cells were always plated in 3 ml of culture medium at a density of 0.8−1×10^6 per 6 cm dish 24 h before the transfer to hypoxia (2% O2 and 5% CO2 balanced with N2) generated in a Napco 7000 incubator, where they were grown for additional 48 h (if not stated otherwise). Parallel normoxic dishes were incubated in air with 5% CO2.
# (§1) Sulfonamide treatment of cells. […] Images were acquired by Nikon Coolpix 990.
# Mean differences in the pH values determined in the treated versus control dishes are shown on the histogram with indicated standard deviations. The experiment was repeated three times using at least three parallel dishes for each sample.
# hCA I = hCA I (Homo sapiens, UniProt P00915); assay: CA inhibition, CO2 hydration method, isozyme I; type: biochemical; conditions: KI hCA I, Table 1, human cloned isozyme
# Chain of hCA I (P00915 whole entry): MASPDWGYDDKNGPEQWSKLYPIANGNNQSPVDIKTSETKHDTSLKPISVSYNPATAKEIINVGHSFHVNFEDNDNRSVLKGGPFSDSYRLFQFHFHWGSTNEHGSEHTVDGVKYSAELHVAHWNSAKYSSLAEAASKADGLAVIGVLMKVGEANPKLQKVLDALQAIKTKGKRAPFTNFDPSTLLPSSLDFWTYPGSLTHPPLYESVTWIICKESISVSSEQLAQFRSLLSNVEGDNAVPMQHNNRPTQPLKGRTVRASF
# [2] = system: HeLa cervical carcinoma cells; assay: Binding of fluorescent sulfonamide to HeLa cells; conditions: hypoxic versus normoxic cells
# Experimental: (§2) Sulfonamide treatment of cells. The sulfonamides were dissolved in PBS with 20% DMSO at 100 mM concentration and diluted in a culture medium to a required final concentration just before their addition to cells. Immediately after beginning of the treatment with sulfonamides, the cells were transferred to hypoxia and incubated for 48 h. Parallel cultures were maintained for the same time period in normoxia.
# human red cells = assay: Ex vivo penetration through red blood cell membranes
# [3] = system: SiHa cervical carcinoma cells; assay: Binding of fluorescent sulfonamide to SiHa cells; conditions: hypoxic versus normoxic cells
# Experimental: as §2
# [4] = system: SiHa cervical carcinoma cells; assay: Effect on extracellular pH of SiHa cells in hypoxia; type: cell-based; conditions: hypoxia 48 h, 1 mM
# MDCK-CA IX cells = assay: Binding of fluorescent sulfonamide to MDCK-CA IX cells (fluorescence microscopy); type: cell-based, canine; conditions: CA IX-positive and mock-transfected MDCK cells, normoxia or hypoxia 48 h
# Excerpt: as §1
structure (smiles),measurement,setting,value
"NS(=O)(=O)c1ccc(CCNC(=S)Nc2ccc(-c3c4ccc(=O)cc-4oc4cc(O)ccc34)c(C(=O)O)c2)cc1 [5c, (4-Sulfamoylphenylethyl)thioureido fluorescein]",acidosis (pHe) of hypoxic HeLa cells,[1],reduced
same,Ki,hCA I,1300 nM
same,binding to HeLa cells,[2],binds to hypoxic HeLa and SiHa cells
same,"[sulfonamide] in red blood cells, t = 30 min, HPLC","human red cells; 30 min, 3 mM sulfonamide in 5 mM Tris buffer pH 7.4, HPLC method",0.4 µM
same,"[sulfonamide] in red blood cells, t = 30 min, ES","human red cells; 30 min, 3 mM sulfonamide in 5 mM Tris buffer pH 7.4, electronic spectroscopy",0.9 µM
same,"[sulfonamide] in red blood cells, t = 60 min, HPLC","human red cells; 60 min, 3 mM sulfonamide in 5 mM Tris buffer pH 7.4, HPLC method",0.6 µM
same,"[sulfonamide] in red blood cells, t = 60 min, ES","human red cells; 60 min, 3 mM sulfonamide in 5 mM Tris buffer pH 7.4, electronic spectroscopy",1.2 µM
same,"[sulfonamide] in red blood cells, t = 48 h, HPLC","human red cells; 48 h, 3 mM sulfonamide in 5 mM Tris buffer pH 7.4, HPLC method",10.4 µM
same,"[sulfonamide] in red blood cells, t = 48 h, ES","human red cells; 48 h, 3 mM sulfonamide in 5 mM Tris buffer pH 7.4, electronic spectroscopy",3.0 µM
same,membrane permeability at exposure times of 30-60 min,"human red cells; human RBCs, 30-60 min, pH 7.4",decreased membrane permeability
same,membrane permeability after 48 hours of exposure,"human red cells; human RBCs, 48 hours, pH 7.4",slightly more permeant
same,binding to SiHa cells,[3],binds to hypoxic HeLa and SiHa cells
same,acidosis (pHe) of hypoxic SiHa cells,[4],reduced
same,fluorescence signal (binding to cells),MDCK-CA IX cells,detected only in the hypoxic MDCK-CA IX cells

# Source: patent publication US20080138291A1, “Sulfonamide Derivatives Having Carbonic Anhydrase Inhibiting Activity and their Use as Therapeutic and Diagnostic Agents” (UNION LIFE SCIENCES LTD., priority 2005, published 2008)
